The source of these data is publication PMC10381909, “Secondary Metabolites from the Cultures of Medicinal Mushroom Vanderbylia robiniophila and Their Tyrosinase Inhibitory Activities” (Journal of Fungi, 2023).

In one data set the test system is Aβ1–42. On the set-up: method as in PMID 31520649. The conditions noted are these: pair of enantiomeric compounds from corn silk; cited from earlier work.
The target in the next data set is tyrosinase (Agaricus bisporus, UniProt C7FF04). As to the kind of experiment: Enzyme kinetic analysis (V-S curve, Lineweaver–Burk plot, secondary replot). In kind it is biochemical. The procedure:
The inhibition type was measured by the reaction rate–substrate concentration curve and the Lineweaver–Burk plot. L-tyrosine solutions were diluted to different concentrations (5 mM, 7.5 mM, 9 mM, 12 mM, 15 mM) as the substate. The inhibition constant was determined by the second plot of the y-intercept versus the concentration of the inhibitor. The values of Kis were calculated from the following formula: y-intercept=1/Vm1+[I]/Kis
The inhibition constant Kis was obtained from the plot of the y-intercept versus the concentration of 10, which was calculated to be 0.04 mM (Figure 5C).

A further data set relates to HeLa cells. On the set-up: method as in PMID 21747753, PMID 21673896, PMID 31671793. The conditions noted are these: obtained from marine-derived fungi; cited from earlier work.

tyrosinase, sequence (C7FF04 1-392): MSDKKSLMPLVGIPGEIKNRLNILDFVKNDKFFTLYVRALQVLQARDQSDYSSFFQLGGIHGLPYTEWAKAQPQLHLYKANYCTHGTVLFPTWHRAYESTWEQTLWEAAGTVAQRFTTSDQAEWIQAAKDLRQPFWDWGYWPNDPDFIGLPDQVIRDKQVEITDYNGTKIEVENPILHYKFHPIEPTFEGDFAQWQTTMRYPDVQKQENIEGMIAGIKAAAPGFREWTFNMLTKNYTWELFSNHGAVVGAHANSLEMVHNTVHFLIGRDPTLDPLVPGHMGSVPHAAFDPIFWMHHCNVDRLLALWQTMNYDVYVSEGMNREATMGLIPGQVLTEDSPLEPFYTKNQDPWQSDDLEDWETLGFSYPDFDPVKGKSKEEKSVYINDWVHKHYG

In the case of `COC(=O)CCCCCCC[C@H]1C=CC(=O)O1` [Compound 9, Cornilkone C], in the data set on Aβ1–42, the “anti-Aβ1–42 aggregation activity” value is given as “weak”.
Regarding `COC(=O)C(=O)c1c[nH]c2ccccc12` [Compound 10, (1H-indol-3-yl) oxoacetic acid methyl ester], on tyrosinase (L-tyrosine 5–15 mM, Lineweaver–Burk plot), the “inhibition type on tyrosinase” value is on record as “uncompetitive inhibitor”. The “change of Km and Vm with increasing inhibitor concentration” value at tyrosinase (ratio Km/Vm remained unchanged) is given as “decreased”. In the data set on HeLa cells, the “cytotoxic activity against HeLa cells” value was “weak”.
